We go through 13 molecules from PubChem BioAssay (NCI).

Among the test systems are T-47D breast; RPMI-8226 leukemia; SNB-75 CNS; BT-549 breast; HCT-15 colon; RXF 393 renal; HL-60(TB) leukemia; SK-MEL-2 melanoma.
Holding throughout (assay): DTP human tumour cell line panel, 48 h

For orientation: TGI means the concentration at which net growth stops. Low readings indicate greater sensitivity of the cells, high ones lower sensitivity of the cells. A word on the GI50: it is the concentration that inhibits growth by half.

The structures appear in SMILES notation.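 Cultured in 96-well plates, cells were exposed to test compound for 48 hours across five concentrations. GI50 is the concentration that inhibits growth by half. TGI marks complete inhibition of growth.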

For the molecule `CC1CC(O)C(=O)C(O[C@@H]2C[C@@H]3CC[C@@H]4[C@H](CC[C@]5(C)C(C6=CC(=O)OC6)CC[C@]45O)[C@@]3(C=O)C[C@H]2O)O1` (stereo partly drawn), the TGI in the test with T-47D breast was 0.205 µM; in the test with RPMI-8226 leukemia, 0.246 µM; in the test on SNB-75 CNS, 0.18 µM; with BT-549 breast, 0.126 µM; in the test on HCT-15 colon it was 0.0716 µM; in the test with RXF 393 renal, 0.0506 µM. Further, in the test with HL-60(TB) leukemia, the TGI was found to be 0.155 µM.
For `COC(=O)c1cc2c(o1)-c1nccc3c1c(nc1ccccc13)C2=O`, the GI50 in the test on T-47D breast is 1.88 µM; with RPMI-8226 leukemia, 2.03 µM; with BT-549 breast it was 4.05 µM; in the test on HCT-15 colon it was 1.57 µM; with HL-60(TB) leukemia, 2 µM. Moreover, the TGI turned out to be 6.9 µM with T-47D breast; 18 µM in the test with RPMI-8226 leukemia; 18.2 µM in the test with BT-549 breast; 11.1 µM in the test with HCT-15 colon; 4.76 µM with HL-60(TB) leukemia.
For `N[C@H](CCC(=O)N[C@@H](Cc1c[nH]c2ccccc12)C(=O)O)C(=O)O`, the GI50 in the test with T-47D breast, in the test on SK-MEL-2 melanoma, in the test with RPMI-8226 leukemia, in the test on SNB-75 CNS, with BT-549 breast and in the test with HCT-15 colon was more than 100 µM throughout. The GI50 in the test on RXF 393 renal and in the test with HL-60(TB) leukemia was more than 100 µM throughout. Further, the TGI in the test with T-47D breast, in the test on SK-MEL-2 melanoma, in the test on RPMI-8226 leukemia, in the test on SNB-75 CNS, in the test on BT-549 breast and with HCT-15 colon was more than 100 µM in each case. Further, the TGI in the test on RXF 393 renal and in the test with HL-60(TB) leukemia was more than 100 µM in each case.
As to `CCOCN1COCN(C)C1=O`, the TGI with SK-MEL-2 melanoma, in the test on RPMI-8226 leukemia, in the test with SNB-75 CNS and in the test on HCT-15 colon was more than 100 µM in each case.
`Cc1cc(N/N=C/c2ccccn2)nc2ccccc12`: the GI50 in the test on T-47D breast is 0.376 µM; in the test with SK-MEL-2 melanoma it was 4.89 µM; in the test with RPMI-8226 leukemia, 0.41 µM; in the test with SNB-75 CNS, 0.461 µM; in the test on BT-549 breast, 0.85 µM; in the test on HCT-15 colon, 0.336 µM. Also, the GI50 is 0.321 µM in the test on RXF 393 renal and 0.295 µM in the test with HL-60(TB) leukemia. The TGI with T-47D breast turned out to be 15.9 µM; in the test on SK-MEL-2 melanoma, 19.6 µM; in the test with RPMI-8226 leukemia, 12.5 µM; in the test with SNB-75 CNS it was 15.2 µM; in the test on BT-549 breast, 20.3 µM; with HCT-15 colon it was 16.3 µM. Also, the values for the TGI in the test with RXF 393 renal and in the test on HL-60(TB) leukemia were 4.87 µM and 0.804 µM, respectively.
In the case of `O=C(/C=C/c1ccccc1)c1ccccc1`, the TGI with T-47D breast is more than 10 µM; in the test on SK-MEL-2 melanoma it was more than 10 µM; with RPMI-8226 leukemia it was more than 7.63 µM; in the test on SNB-75 CNS it was more than 10 µM; in the test with BT-549 breast, more than 10 µM; in the test on HCT-15 colon, more than 10 µM. For the same molecule, the total growth inhibition concentration (TGI) in the test on RXF 393 renal and with HL-60(TB) leukemia was more than 10 µM throughout.
Regarding `NCCNCC1CCNCC1`, the TGI in the test on T-47D breast, in the test with SK-MEL-2 melanoma, in the test with RPMI-8226 leukemia, in the test with SNB-75 CNS, in the test on BT-549 breast and in the test with HCT-15 colon was more than 100 µM in each case. Further, the TGI in the test on RXF 393 renal was more than 100 µM.
`Cn1c(=O)c2c(nc(C(=N)SCC(=O)O)n2C)n(C)c1=O`: the TGI in the test on T-47D breast, in the test on SK-MEL-2 melanoma, in the test on RPMI-8226 leukemia, with SNB-75 CNS, in the test with BT-549 breast and in the test on HCT-15 colon was more than 100 µM in each case. Also, the results for the TGI in the test on RXF 393 renal and with HL-60(TB) leukemia were more than 100 µM and 52.8 µM, respectively.
As to `ClCCN(CCCl)c1ccc(CNc2ccccc2)cc1`, the GI50 in the test on T-47D breast was 5.91 µM; in the test with SK-MEL-2 melanoma, 20.9 µM; in the test with RPMI-8226 leukemia, 12.9 µM; with SNB-75 CNS, 3.7 µM; with BT-549 breast it was 7.2 µM; with HCT-15 colon, 10.4 µM. Further, the GI50 in the test with HL-60(TB) leukemia is 2.44 µM. In addition, the TGI in the test with T-47D breast was more than 100 µM; with SK-MEL-2 melanoma it was 51 µM; in the test on RPMI-8226 leukemia, 69.4 µM; in the test with SNB-75 CNS, 57.4 µM; in the test with BT-549 breast it was 43 µM; with HCT-15 colon it was more than 100 µM. For the same molecule, the total growth inhibition concentration (TGI) in the test with HL-60(TB) leukemia came to 54 µM.
`CCC(C)(O)c1cnc(CC(C)C)c(=O)n1O` (stereo not drawn): the concentration for total growth inhibition (TGI) was more than 100 µM in the test on T-47D breast; more than 100 µM with SK-MEL-2 melanoma; 28.5 µM with RPMI-8226 leukemia; more than 100 µM in the test on SNB-75 CNS; more than 100 µM with BT-549 breast; more than 100 µM with HCT-15 colon. Also, in the test with RXF 393 renal, the TGI was more than 100 µM.
`Cc1cc(Nc2nc(-c3cn(-c4ccc(Cl)cc4)nn3)nc3ccccc23)n[nH]1`: the GI50 was 13.1 µM in the test with T-47D breast; 8.23 µM in the test on SK-MEL-2 melanoma; 19.6 µM with RPMI-8226 leukemia; 23 µM with SNB-75 CNS; 15 µM with BT-549 breast; 2.17 µM in the test on HCT-15 colon. Moreover, the GI50 is 5.09 µM with RXF 393 renal and 18.3 µM in the test with HL-60(TB) leukemia. Moreover, the TGI in the test on T-47D breast is 42.3 µM; in the test on SK-MEL-2 melanoma it was 29.8 µM; with RPMI-8226 leukemia, more than 50 µM; with SNB-75 CNS, more than 50 µM; in the test with BT-549 breast, more than 50 µM; in the test on HCT-15 colon, more than 50 µM. The TGI in the test with RXF 393 renal was 26.1 µM; with HL-60(TB) leukemia, more than 50 µM.
For `O=C(Nc1cc(Nc2ncccc2-c2ncnc3nc[nH]c23)ccc1F)c1cc(C(F)(F)F)cc(C(F)(F)F)c1`, the GI50 in the test on T-47D breast was 4.24 µM; in the test with SK-MEL-2 melanoma, 0.355 µM; in the test with RPMI-8226 leukemia, 2.12 µM; with SNB-75 CNS, 1.9 µM; in the test with BT-549 breast, 2.87 µM; with HCT-15 colon it was 2.12 µM. In addition, the GI50 was 1.91 µM in the test with RXF 393 renal and 0.439 µM in the test with HL-60(TB) leukemia. Further, the TGI is more than 10 µM in the test on T-47D breast; 2.41 µM in the test with SK-MEL-2 melanoma; 6.4 µM in the test on RPMI-8226 leukemia; 7.15 µM in the test with SNB-75 CNS; 6.54 µM with BT-549 breast; 5.67 µM with HCT-15 colon. Further, the TGI in the test on RXF 393 renal came out at 4.62 µM; in the test with HL-60(TB) leukemia, 8.44 µM.
For `CC1(C)CN=C(NN=C(/C=C/c2ccc(C(F)(F)F)cc2)/C=C/c2ccc(C(F)(F)F)cc2)NC1`, the GI50 in the test on T-47D breast was 1.49 µM; with RPMI-8226 leukemia, 0.466 µM; in the test with SNB-75 CNS, 1.56 µM; in the test with BT-549 breast, 1.74 µM; in the test on HCT-15 colon, 0.989 µM; in the test on RXF 393 renal it was 1.33 µM. For the same molecule, in the test with HL-60(TB) leukemia, the GI50 was 2.03 µM. Moreover, the TGI was 3.03 µM in the test with T-47D breast; 2.3 µM with RPMI-8226 leukemia; 2.95 µM in the test with SNB-75 CNS; 3.46 µM in the test with BT-549 breast; 2.45 µM in the test with HCT-15 colon; 2.73 µM with RXF 393 renal. This molecule registered a TGI with HL-60(TB) leukemia of 4.35 µM.
